Experimental data reported in US12077503B2, “Substituted cyclic amides and their use as herbicides” (FMC CORPORATION, priority 2015, dated 2024).

What was measured:
Assay type in all cases: in vivo
corn (Zea mays) [1] = assay: Test G Post-Emergence Protocol; settings: Zea mays, post-emergence, 312 h, read-out: Corn damage rating
Summary of the method: (§1)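 Pot-grown seedlings, 8 days old, raised in a glasshouse at 24/16 °C day/night with 14 h light and 65% humidity, were sprayed post-emergence with test compound in acetone/water (50:50) plus 0.5% Tween 20 at 15.625, 62.5 or 250 g/ha. Damage was scored visually 13 days later on a 0–100 scale (100 = total damage).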

[2] = test system: barnyardgrass (Echinochloa crus-galli); assay: Test G Post-Emergence Protocol; settings: Echinochloa crus-galli, post-emergence, 312 h, read-out: Barnyardgrass damage rating
Summary of the method: as §1

[3] = test system: giant foxtail (Setaria faberi); assay: Test G Post-Emergence Protocol; settings: Setaria faberi, post-emergence, 312 h, read-out: Foxtail, Giant damage rating
Summary of the method: as §1

[4] = test system: redroot pigweed (Amaranthus retroflexus); assay: Test G Post-Emergence Protocol; settings: Amaranthus retroflexus, post-emergence, 312 h, read-out: Pigweed, Redroot damage rating
Summary of the method: as §1

[5] = test system: ivy-leaved morning glory (Ipomoea hederacea); assay: Test G Post-Emergence Protocol; settings: Ipomoea, post-emergence, 312 h, read-out: Morningglory, Ivy-leaved damage rating
Summary of the method: as §1

[6] = test system: velvetleaf (Abutilon theophrasti); assay: Test G Post-Emergence Protocol; settings: Abutilon theophrasti, post-emergence, 312 h, read-out: Velvetleaf damage rating
Summary of the method: as §1

corn (Zea mays) [7] = assay: Test G Pre-Emergence Protocol; settings: Zea mays, pre-emergence, 312 h, evaluated after 13 days
Summary of the method: (§2)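 Under a 24/16° C day/night regime with 14 h light and 65% humidity, sown pots were sprayed after one day with compound (15.625, 62.5 or 250 g/ha; 50:50 acetone/water, 0.5% Tween 20). Damage was assessed visually 13 days later, 0 to 100.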

[8] = test system: barnyardgrass (Echinochloa crus-galli); assay: Test G Pre-Emergence Protocol; settings: Echinochloa crus-galli, pre-emergence, 312 h, evaluated after 13 days
Summary of the method: as §2

[9] = test system: giant foxtail (Setaria faberi); assay: Test G Pre-Emergence Protocol; settings: Setaria faberi, pre-emergence, 312 h, evaluated after 13 days
Summary of the method: as §2

[10] = test system: redroot pigweed (Amaranthus retroflexus); assay: Test G Pre-Emergence Protocol; settings: Amaranthus retroflexus, pre-emergence, 312 h, evaluated after 13 days
Summary of the method: as §2

[11] = test system: ivy-leaved morning glory (Ipomoea hederacea); assay: Test G Pre-Emergence Protocol; settings: Ipomoea, pre-emergence, 312 h, evaluated after 13 days
Summary of the method: as §2

[12] = test system: velvetleaf (Abutilon theophrasti); assay: Test G Pre-Emergence Protocol; settings: Abutilon theophrasti, pre-emergence, 312 h, evaluated after 13 days
Summary of the method: as §2

[13] = 15.625 g ai/ha, evaluated after 13 days (100=total damage to plant; 0=no damage to plant)
[14] = 62.5 g ai/ha, evaluated after 13 days, 100=total damage to plant, 0=no damage to plant
[15] = 250 g ai/ha, evaluated after 13 days, 100=total damage to plant, 0=no damage to plant

COc1c(F)cc(C2CN(C)C(=O)C2C(=O)Nc2cccc(F)c2F)cc1Cl (stereo not drawn) [Compound 1709]
plant injury at 15.625 g/ha (corn (Zea mays) [1]; [13]): 30%
plant injury at 62.5 g/ha (corn (Zea mays) [1]; [14]): 60%
plant injury at 250 g/ha (corn (Zea mays) [1]; [15]): 80%
pest or weed control at 15.625 g/ha [2, 13]: 30%
pest or weed control at 62.5 g/ha [2, 14]: 70%
pest or weed control at 250 g/ha [2, 15]: 80%
pest or weed control at 15.625 g/ha [3, 13]: 70%
pest or weed control at 62.5 g/ha [3, 14]: 80%
pest or weed control at 250 g/ha [3, 15]: 80%
pest or weed control at 15.625 g/ha [4, 13]: 20%
pest or weed control at 62.5 g/ha [4, 14]: 10%
pest or weed control at 250 g/ha [4, 15]: 30%
pest or weed control at 15.625 g/ha [5, 13]: 10%
pest or weed control at 62.5 g/ha [5, 14]: 50%
pest or weed control at 250 g/ha [5, 15]: 70%
pest or weed control at 15.625 g/ha [6, 13]: 20%
pest or weed control at 62.5 g/ha [6, 14]: 10%
pest or weed control at 250 g/ha [6, 15]: 50%
plant injury at 15.625 g/ha (corn (Zea mays) [7]; 15.625 g ai/ha, read-out: Corn damage rating (100=total damage to plant; 0=no damage to plant)): 0%
plant injury at 62.5 g/ha (corn (Zea mays) [7]; 62.5 g ai/ha, 100=total damage to plant, 0=no damage to plant, read-out: Corn damage rating): 70%
plant injury at 250 g/ha (corn (Zea mays) [7]; 250 g ai/ha, read-out: Corn damage rating (100=total damage to plant; 0=no damage to plant)): 90%
pest or weed control at 15.625 g/ha ([8]; 15.625 g ai/ha, read-out: Barnyardgrass damage rating (100=total damage to plant; 0=no damage to plant)): 60%
pest or weed control at 62.5 g/ha ([8]; 62.5 g ai/ha, 100=total damage to plant, 0=no damage to plant, read-out: Barnyardgrass damage rating): 70%
pest or weed control at 250 g/ha ([8]; 250 g ai/ha, read-out: Barnyardgrass damage rating (100=total damage to plant; 0=no damage to plant)): 80%
pest or weed control at 15.625 g/ha ([9]; 15.625 g ai/ha, read-out: Foxtail, Giant damage rating (100=total damage to plant; 0=no damage to plant)): 70%
pest or weed control at 62.5 g/ha ([9]; 62.5 g ai/ha, 100=total damage to plant, 0=no damage to plant, read-out: Foxtail, Giant damage rating): 80%
pest or weed control at 250 g/ha ([9]; 250 g ai/ha, read-out: Foxtail, Giant damage rating (100=total damage to plant; 0=no damage to plant)): 90%
pest or weed control at 15.625 g/ha ([10]; 15.625 g ai/ha, read-out: Pigweed, Redroot damage rating (100=total damage to plant; 0=no damage to plant)): 0%
pest or weed control at 62.5 g/ha ([10]; 62.5 g ai/ha, 100=total damage to plant, 0=no damage to plant, read-out: Pigweed, Redroot damage rating): 20%
pest or weed control at 250 g/ha ([10]; 250 g ai/ha, read-out: Pigweed, Redroot damage rating (100=total damage to plant; 0=no damage to plant)): 50%
pest or weed control at 15.625 g/ha ([11]; 15.625 g ai/ha, read-out: Morningglory, Ivy-leaved damage rating (100=total damage to plant; 0=no damage to plant)): 0%
pest or weed control at 62.5 g/ha ([11]; 62.5 g ai/ha, 100=total damage to plant, 0=no damage to plant, read-out: Morningglory, Ivy-leaved damage rating): 10%
pest or weed control at 250 g/ha ([11]; 250 g ai/ha, read-out: Morningglory, Ivy-leaved damage rating (100=total damage to plant; 0=no damage to plant)): 20%
pest or weed control at 15.625 g/ha ([12]; 15.625 g ai/ha, read-out: Velvetleaf damage rating (100=total damage to plant; 0=no damage to plant)): 0%
pest or weed control at 62.5 g/ha ([12]; 62.5 g ai/ha, 100=total damage to plant, 0=no damage to plant, read-out: Velvetleaf damage rating): 20%
pest or weed control at 250 g/ha ([12]; 250 g ai/ha, read-out: Velvetleaf damage rating (100=total damage to plant; 0=no damage to plant)): 30%
